Patent US7972785B2, “Biomarkers for liver fibrotic injury” (Industrial Technology Research Institute (ITRI), priority 2006, dated 2011)

System: rat liver proteins (vimentin, fibrinogen)
Assay: iTRAQ proteomics / Western blot of liver protein of DMN-treated rats
Format: in vivo
Conditions: DMN-induced rats
Method: The liver tissues of 6 control and 6 DMN-treated rats were used to perform duplicate iTRAQ labeling experiments. Liver tissue was frozen in liquid nitrogen and then pulverized to powder using a mortar and pestle pre-cooled with liquid nitrogen. Then, the liquid nitrogen was allowed to evaporate, and the powdered tissue was separated into tubes and stored at −80° C. Twenty volumes (w/v) of lysis buffer (containing 2% (w/v) SDS in 20 mM phosphate buffer at pH 7.6) was added to the powdered tissue and incubated at room temperature for 1 hour. […]
The total protein contents were determined using the Coomassie Plus Protein Assay Reagent (PIERCE, Rockford, Ill., U.S.A.). […]
Peptides with different isobaric tags were pooled and acidified by mixing with 10 mM phosphoric acid (in 25% (v/v) acetonitrile and 75% H2O) to a total volume of 4.0 mL for strong cation exchange (SCX) chromatography. […] The desalted peptide from each SCX fraction was dried by speed vacuuming centrifugation and then analyzed by nanoLC hybrid mass spectrometry. […] MS/MS mass spectra were analyzed in continuous flow mode with a […] I.D. fused silica tip. MS/MS spectra were analyzed against rat.fasta databases from NCBI by ProQUANT 2.0 (Applied Biosystems/MDS Sciex, Foster City, Calif., U.S.A.). […] Relative quantification of peptide was performed on the MS/MS scans, using ratio of the areas under the peaks. […]

## CN(C)N=O [DMN, Dimethylnitrosamine]
  Fibrinogen protein expression: up-regulated
